Test results as given in patent US8541404B2, “Inhibitors of the human aldosterone synthase CYP11B2” (ElexoPharm GmbH, priority 2009, dated 2013).
Where a name gives a salt, the structure may show the parent alone.

melting point | SMILES
298 °C | O=C1CCc2cc(-c3cccnc3)c(O)cc2N1 [Example 50]
266 °C | O=C1COc2cc(-c3cncc4ccccc34)ccc2N1 [Example 55, 7-(Isoquinolin-4-yl)-2H-benzo[b][1,4]oxazin-3(4H)-one]
172 °C | COc1cncc(-c2cc3c4c(c2)CCN4C(=O)CC3)c1 [Example 17, 8-(5-Methoxypyridin-3-yl)-1,2,5,6-tetrahydro-pyrrolo[3,2,1-ij]quinolin-4-one]
181 °C | O=C1CCc2cc(-c3cncc(-c4cccc(F)c4)c3)cc3c2N1CC3 [Example 37, 8-[5-(3-Fluorophenyl)-pyridin-3-yl]-1,2,5,6-tetrahydro-pyrrolo[3,2,1-ij]quinolin-4-one]
233 °C | O=C1CCc2cc(-c3cncnc3)ccc2N1 [Example 21, 6-Pyrimidin-5-yl-3,4-dihydro-1H-quinolin-2-one]
203 °C | O=C1CCc2cc(-c3cccnc3)cc(F)c2N1 [Example 46]
235 °C | Fc1cc(-c2cccnc2)cc2c1NC(=S)CC2 [Example 51]
184 °C | O=C(c1ccncc1)c1cc2c3c(c1)CCN3C(=O)CC2 [Example 31, 8-(Pyridine-4-carbonyl)-1,2,5,6-tetrahydro-pyrrolo[3,2,1-ij]quinolin-4-one]
> 300 °C | O=C1CCc2cc(-c3cncc(O)c3)cc3c2N1CC3 (as salt: HCl) [Example 23, 8-(5-Hydroxypyridin-3-yl)-1,2,5,6-tetrahydro-pyrrolo[3,2,1-ij]quinolin-4-one]
159 °C | O=C1CCc2cc(-c3cncc4ccccc34)cc3c2N1CCC3 [Example 20, 9-Isoquinolin-4-yl-1,2,6,7-tetrahydro-5H-pyrido[3,2,1-ij]quinolin-3-one]
175 °C | S=C1CCc2cc(-c3cccnc3)cc(Cl)c2N1 [Example 15, 8-Chloro-6-pyridin-3-yl-3,4-dihydro-1H-quinoline-2-thione]
228 °C | O=C1CCc2cc(-c3cccnc3)c(F)cc2N1 [Example 47]
202 °C | O=C1CCc2cc(-c3cncc4ccccc34)cc(F)c2N1 [Example 48, 8-Fluoro-6-isoquinolin-4-yl-3-yl-3,4,4a,8a-tetrahydro-1H-quinolin-2-one]
174 °C | O=C1CCc2cc(-c3ccncc3)cc3c2N1CC3 [Example 29, 8-Pyridin-4-yl-1,2,5,6-tetrahydro-pyrrolo[3,2,1-ij]quinolin-4-one]
212 °C | O=C1CCc2cc(-c3cncc(C(F)(F)F)c3)cc3c2N1CC3 [Example 26, 8-(5-Trifluoromethylpyridin-3-yl)-1,2,5,6-tetrahydro-pyrrolo[3,2,1-ij]quinolin-4-one]
195 °C | CCC(c1cc2c3c(c1)CCN3C(=O)CC2)n1ccnc1 (centres unmarked) [Example 60, 8-(1-(1H-imidazol-1-yl)propyl)-1,2,5,6-tetrahydropyrrolo[3,2,1-ij]quinolin-4-one]
158 °C | O=C1CCc2cc(-c3cncc(F)c3)cc3c2N1CC3 [Example 27, 8-(5-Fluoropyridin-3-yl)-1,2,5,6-tetrahydro-pyrrolo[3,2,1-ij]quinolin-4-one]
189 °C | O=C1CCc2cc(-c3cncc(-c4ccccc4)c3)cc3c2N1CC3 [Example 33, 8-(5-Phenylpyridin-3-yl)-1,2,5,6-tetrahydro-pyrrolo[3,2,1-ij]quinolin-4-one]
233 °C | O=C1CCc2cc(-c3cncc(-c4ccc(F)cc4)c3)cc3c2N1CC3 [Example 36, 8-[5-(4-Fluorophenyl)-pyridin-3-yl]-1,2,5,6-tetrahydro-pyrrolo[3,2,1-ij]quinolin-4-one]

melting point | SMILES
189 °C | O=C1CCc2cc(-c3cccnc3)cc([N+](=O)[O-])c2N1 [Example 13, 8-Nitro-6-pyridin-3-yl-3,4-dihydro-1H-quinolin-2-one]
147 °C | O=C(c1cccnc1)c1cc2c3c(c1)CCN3C(=O)CC2 [Example 32, 8-(Pyridine-3-carbonyl)-1,2,5,6-tetrahydro-pyrrolo[3,2,1-ij]quinolin-4-one]
180 °C | CC1(C)CC(=O)N2CCc3cc(-c4cccnc4)cc1c32 [Example 24, 6,6-Dimethyl-8-pyridin-3-yl-1,2,5,6-tetrahydro-pyrrolo[3,2,1-ij]quinolin-4-one]
172 °C | CCOc1cncc(-c2cc3c4c(c2)CCN4C(=O)CC3)c1 [Example 25, 8-(5-Ethoxypyridin-3-yl)-1,2,5,6-tetrahydro-pyrrolo[3,2,1-ij]quinolin-4-one]
101 °C | CC(C)N1C(=O)CCc2cc(-c3cccnc3)ccc21 [Example 10, 1-Isopropyl-6-pyridin-3-yl-3,4-dihydro-1H-quinolin-2-one]
185 °C | O=C1CCc2cc(-c3cncc4ccccc34)cc3c2N1CC3 [Example 18, 8-Isoquinolin-4-yl-1,2,5,6-tetrahydro-pyrrolo[3,2,1-ij]quinolin-4-one]
256 °C | O=C1COc2cc(-c3cccnc3)ccc2N1 [Example 53, 7-(Pyridin-3-yl)-2H-benzo[b][1,4]oxazin-3(4H)-one]
186 °C | O=C1CCc2cc(-c3cncnc3)cc3c2N1CC3 [Example 30, 8-Pyrimidin-5-yl-1,2,5,6-tetrahydro-pyrrolo[3,2,1-ij]quinolin-4-one]
123 °C | O=C1CCc2cc(-c3cccnc3)cc3c2N1CCC3 [Example 16, 9-Pyridin-3-yl-1,2,6,7-tetrahydro-5H-pyrido[3,2,1-ij]quinolin-3-one]
152 °C | O=C1CCc2cc(-c3cccnc3)cc3c2N1CC3 [Example 11, 8-Pyridin-3-yl-1,2,5,6-tetrahydro-pyrrolo[3,2,1-ij]quinoline-4-one]
281 °C | O=C1CCc2cc(-c3cncc4ccccc34)c(F)cc2N1 [Example 49]
215 °C | COc1cncc(-c2ccc3c(c2)CCC(=O)N3)c1 [Example 4, 6-(5-Methoxypyridin-3-yl)-3,4-dihydro-1H-quinolin-2-one]
197 °C | CC(c1cc2c3c(c1)CCN3C(=O)CC2)n1ccnc1 (centres unmarked) [Example 35, 8-(1-Imidazol-1-yl-ethyl)-1,2,5,6-tetrahydro-pyrrolo[3,2,1-ij]quinolin-4-one]
155 °C | CC(C)Oc1cncc(-c2cc3c4c(c2)CCN4C(=O)CC3)c1 [Example 34, 8-(5-Isopropoxypyridin-3-yl)-1,2,5,6-tetrahydro-pyrrolo[3,2,1-ij]quinolin-4-one]
101 °C | CN1C(=O)CCc2cc(-c3cccnc3)ccc21 [Example 2, 1-Methyl-6-pyridin-3-yl-3,4-dihydro-1H-quinolin-2-one]
> 300 °C | O=C1CNc2cc(-c3cncc4ccccc34)ccc2N1 [Example 56, 6-(Isoquinolin-4-yl)-3,4-dihydroquinoxalin-2(1H)-one]
> 300 °C | CN1CC(=O)Nc2ccc(-c3cccnc3)cc21 [Example 57, 4-Methyl-6-(pyridin-3-yl)-3,4-dihydroquinoxalin-2(1H)-one]
283 °C | S=C1CCc2cc(-c3cccnc3)cc3c2N1CC3 (as salt: HCl) [Example 22, 8-Pyridin-3-yl-1,2,5,6-tetrahydro-pyrrolo[3,2,1-ij]quinoline-4-thione]
248 °C | Fc1cc2c(cc1-c1cccnc1)CCC(=S)N2 [Example 52]
